The NIST ThermoML archive (doi:10.1016/j.jct.2012.11.017)

Experiment: xn = mol fraction of the nth substance listed
Details: Liquid, Vibrating tube method

CCCCCCCCCC [decane] + CCO
mass density [kg/m3]
Details	x2 = 0.25	x2 = 0.5	x2 = 0.75
303.2 K, 100 kPa	726.4	732.8	746.3
303.2 K, 1000 kPa	727.2	733.7	747.2
303.2 K, 2000 kPa	728	734.5	748.1
303.2 K, 3000 kPa	728.8	735.4	749
303.2 K, 4000 kPa	729.6	736.3	749.8
303.2 K, 5000 kPa	730.4	737.1	750.7
303.2 K, 6000 kPa	731.3	738	751.6
303.2 K, 7000 kPa	732.1	738.8	752.4
303.2 K, 8000 kPa	732.9	739.7	753.3
303.2 K, 9000 kPa	733.7	740.5	754.1
303.2 K, 10000 kPa	734.5	741.3	755
323.2 K, 100 kPa	709.6	715.8	728.5
323.2 K, 1000 kPa	710.3	716.7	729.5
323.2 K, 2000 kPa	711.2	717.7	730.6
323.2 K, 3000 kPa	712.2	718.6	731.5
323.2 K, 4000 kPa	713.1	719.6	732.6
323.2 K, 5000 kPa	714	720.5	733.5
323.2 K, 6000 kPa	714.9	721.5	734.5
323.2 K, 7000 kPa	715.8	722.4	735.4
323.2 K, 8000 kPa	716.8	723.3	736.4
323.2 K, 9000 kPa	717.7	724.2	737.4
323.2 K, 10000 kPa	718.6	725.2	738.4
